Source: patent publication US8653285B2 (Nippon Zoki Pharmaceutical Co., Ltd., priority 2008, dated 2014)
Where a name gives a salt, the structure may show the parent alone. Read-outs that look alike come from different tables or passages of the source.

Tests used:
[1] = tested on: histamine-induced vascular hyperpermeability; test: Rat histamine-induced vascular hyperpermeability reaction (in vivo antihistamine action); details: SD male rat, oral administration, histamine injected intracutaneously 1 hour after administration, leaked Evans Blue
Procedure: An SD male rat (SPF) of 180 g in weight was previously fed for one week or more by allowing the rat to take a solid feed and tap water ad libitum, under the environment setting of a temperature of 22° C., humidity of 55% and an artificial illumination of 12 hours a day (light phase 8 am to 8 pm), and the rat was fasted overnight to be used for the experiment. Histamine.dihydrochloride (hereinafter referred to as histamine) and Evans Blue were used by dissolving each in physiological saline upon use. A substance to be tested was dissolved in water for injection or suspended in 0.5% carboxymethyl cellulose sodium, and the rat was orally administered with the solution or suspension (dose volume: 5 mL/kg body weight). After 1 hour from the administration, the physiological saline and the histamine solution were each intracutaneously injected to two locations (20 μg/0.05 ml/location) each on a back part of the rat of which hair was sheared with an electric clipper while anesthetizing with an ether. A 0.5% Evans Blue-containing physiological saline was injected into the tail vein of the rat (1 mL/200 g body weight) immediately before the intracutaneous injection of the histamine.
After 30 minutes, the animal was decapitated, and exsanguinated, and the skin was removed to measure an amount of leaked pigment in the blue-stained portion. The measurement of the amount of leaked pigment was carried out as follows. Skins of the pigment leaking site were cut out at two locations, 1 mL of a 2 mol/L aqueous potassium hydroxide solution was added thereto in a test tube, and the test tube was allowed to stand overnight at 37° C. to dissolve. Thereafter, 6 mL of a 1:3 mixed solution of 0.67 mol/L phosphoric acid and acetone was added to the solution, and the mixture was vigorously shaken for 10 minutes. Thereafter, the mixture was filtered, and the absorbance of the filtrate at 620 nm was measured. The absorbance obtained from the two locations of the sites injected with physiological saline, as blank value, was used for a compensation. The amount of leaked pigment was calculated from the calibration curve of Evans Blue at 620 nm.

cerebral H1 receptor = target: T1, cerebral H1 receptor (Mus musculus, UniProt P70174); test: Murine cerebral H1 receptor occupying content (ex vivo, 3H-pyrilamine binding in brain homogenate after oral administration)
T1 construct: The excised brain tissue was homogenized with Polytron (Kinematica); from tissue; host or cells: ICR mouse brain (entire brain except cerebellum and medulla oblongata), homogenate
Procedure: A 6-week-old ICR male mouse was previously fed for one week or more by allowing the mouse to take a solid feed and tap water ad libitum, under the environment setting of a temperature of 22° C., humidity of 55% and an artificial illumination of 12 hours a day, and the mouse was fasted overnight to be used for the experiment. A substance to be tested was dissolved with water for injection or suspended in 0.5% carboxymethyl cellulose solution, and the solution or suspension was orally administered to the mouse (dose volume: 0.1 mL/10 g body weight). After 1 hour from the oral administration, the mouse was decapitated, and the entire brain, except for cerebellum and medulla oblongatae, was rapidly excised. The excised brain tissue was homogenized with Polytron (Kinematica) in an ice-cooled 50 mmol/L phosphate buffered saline (pH 7.4, 100 mg/1.9 mL).
To a test tube for reaction (TPX-Tube) were added 180 μL of the brain homogenate, and 10 μL of ^3H-pyrilamine solution (final concentration: 2 nmol/L) and 10 μL of a non-labeled pyrilamine solution (final concentration: 200 μmol/L) or a 50 mmol/L phosphate buffered saline, and the mixture was incubated at room temperature for 45 minutes, and 2.0 mL of an ice-cooled, 50 mmol/L phosphate buffered saline was then added thereto to stop the reaction. The reaction mixture was filtered with a GF/B filter ([…]), and the filtrate was placed in a vial and dried overnight at 60 degrees. After drying, 10 mL of a scintillator (AL-1, toluene-based, DOJINDO LABORATORIES) was added to the product, and the disintegration per minute (dpm) was measured with a liquid scintillation counter (Packard, U.S.A., TRI-CARB 2700TR) (5 minutes/vial).

[2] = target: human histamine H1 receptor (Homo sapiens, UniProt P35367); test: In vitro human histamine H1 receptor binding experiment ([3H]pyrilamine, HEK293A cells stably expressing the receptor); details: [3H]pyrilamine 3 nmol/L, room temperature 60 minutes
Procedure: Recombinant human histamine H1 receptor plasmid (prepared by Invitrogen) was transfected to HEK293A cells with Lipofectamine 2000 (Invitrogen). Cells stably expressing human histamine H1 receptor were screened with Geneticin (Invitrogen). The cells were continued to be cultured using a Dulbecco's Modified Eagle Medium containing 10% fetal bovine serum, 0.1 mmol/L MEM Non-Essential Amino Acids Solution, 2 mmol/L L-glutamine and 0.7 mg/mL Geneticin in a 5% CO2 incubator at 37° C. The cells stably expressing human histamine H1 receptor were prepared using 50 mmol/L Tris-HCl (pH 7.5) (hereinafter referred to as buffer) containing 0.1% bovine serum albumin, so as to have a concentration of 3×10^6 cells/mL, to give a cell sample preparation. Fifty microliters of the buffer, 50 μL of a test substance solution at various concentrations, and 50 μL of [^3H]pyrilamine solution (final concentration: 3 nmol/L) were added to each of the wells on the 96-well plate, and stirred, and 100 μL of the cell sample preparation was then added thereto (at a concentration of 3×10^5 cells/well) to initiate the reaction.
The cells were incubated at room temperature for 60 minutes, and then filtered on UniFilter GF/C plate (Packard) immersed in 0.5% polyethyleneimine using a cell harvester (IH-110, INNOTECH CORPORATION), to stop the reaction, and the plate was washed with the buffer. The plate after washing was sufficiently dried, and 20 μL of a scintillator (MaxiLight, manufactured by Hidex) was added thereto, and count per minute (cpm) was measured with a multi-labeled microplate reader (Plate Chameleo II, Hidex). The nonspecific binding was cpm in a case where 30 μmol/L pyrilamine was added. The experiments were carried out at n=3, and at least repeated 3 times.

[3] = ICR male mouse, oral administration, brain excised after 1 hour, larger ID50 = lower brain transfer, read-out: ID50 (the source's name)

T1 sequence (P70174 whole entry): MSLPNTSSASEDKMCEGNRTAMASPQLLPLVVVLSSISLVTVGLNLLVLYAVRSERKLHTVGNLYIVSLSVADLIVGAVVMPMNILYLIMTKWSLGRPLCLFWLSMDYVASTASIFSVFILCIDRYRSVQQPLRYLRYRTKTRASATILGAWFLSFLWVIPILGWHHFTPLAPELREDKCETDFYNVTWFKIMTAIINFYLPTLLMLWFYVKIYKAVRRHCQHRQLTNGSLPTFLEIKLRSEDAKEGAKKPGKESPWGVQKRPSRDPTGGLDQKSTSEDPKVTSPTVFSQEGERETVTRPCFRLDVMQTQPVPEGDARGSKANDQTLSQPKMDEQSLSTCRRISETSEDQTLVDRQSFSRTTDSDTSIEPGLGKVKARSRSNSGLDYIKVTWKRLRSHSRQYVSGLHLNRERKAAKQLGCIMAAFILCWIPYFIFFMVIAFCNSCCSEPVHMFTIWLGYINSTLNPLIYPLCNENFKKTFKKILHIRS
Chain of human histamine H1 receptor (P35367 whole entry): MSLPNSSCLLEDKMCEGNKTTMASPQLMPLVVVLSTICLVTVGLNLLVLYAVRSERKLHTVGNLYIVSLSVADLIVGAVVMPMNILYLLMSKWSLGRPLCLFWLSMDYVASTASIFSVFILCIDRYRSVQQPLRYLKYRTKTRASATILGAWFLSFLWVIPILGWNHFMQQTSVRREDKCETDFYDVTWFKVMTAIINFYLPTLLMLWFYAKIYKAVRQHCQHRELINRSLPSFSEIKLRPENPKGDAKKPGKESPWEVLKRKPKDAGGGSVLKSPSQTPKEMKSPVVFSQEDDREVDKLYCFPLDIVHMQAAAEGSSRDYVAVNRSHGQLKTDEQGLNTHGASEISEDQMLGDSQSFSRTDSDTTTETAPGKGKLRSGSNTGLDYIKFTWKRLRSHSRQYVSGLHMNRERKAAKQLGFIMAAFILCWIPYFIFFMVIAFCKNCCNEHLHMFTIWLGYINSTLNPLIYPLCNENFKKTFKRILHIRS

Structure (SMILES) | ED50 ([1]; read-out: ED50) | ED50 (cerebral H1 receptor; [3]) | ED50 (cerebral H1 receptor; mouse, po, 1 h, read-out: ID50) | IC50 [2] | ED50 [1] | ID50 (cerebral H1 receptor; ICR male mouse, oral administration, brain excised after 1 hour, larger ID50 = lower brain transfer)
CN(C)CC/C=C1/c2ccccc2CCc2sc(C(=O)O)cc21 [Compound 16, (Z)-[4-(3-Dimethylaminopropylidene)-9,10-dihydro-4H-1-thiabenzo[f]azulen-2-yl]carboxylic acid] | 0.299 mg/kg | 45.8 mg/kg | – | – | – | –
CN(C)CC/C=C1/c2ccccc2CCc2sc(CC(=O)O)cc21.Cl [Compound 18, (Z)-[4-(3-Dimethylaminopropylidene)-9,10-dihydro-4H-1-thiabenzo[f]azulen-2-yl]acetic acid hydrochloride] | 0.063 mg/kg | – | 2.1 mg/kg | – | – | –
CN(C)CC/C=C1\c2cc(CC(=O)O)ccc2OCc2ccsc21 [Compound 19, (E)-[4-(3-Dimethylaminopropylidene)-4,10-dihydro-9-oxa-3-thiabenzo[f]azulen-6-yl]acetic acid] | 0.24 mg/kg | 6.08 mg/kg | – | 56.9 nM | – | –
CN(C)CC/C=C1/c2cc(CC(=O)O)ccc2OCc2ccsc21 [Compound 20, (Z)-[4-(3-Dimethylaminopropylidene)-4,10-dihydro-9-oxa-3-thiabenzo[f]azulen-6-yl]acetic acid] | 0.45 mg/kg | 109 mg/kg | – | – | – | –
CN(C)CCC=C1c2cc(C(C)(C)C(=O)O)ccc2OCc2ccsc21 [Compound 22, (E,Z)-2-[4-(3-Dimethylaminopropylidene)-4,10-dihydro-9-oxa-3-thiabenzo[f]azulen-6-yl]-2-methylpropionic acid] | ~1 mg/kg | 18.7 mg/kg | – | 60 nM | – | –
CCOC(=O)C(C)(C)c1cc2c(s1)C(=O)Cc1ccccc1C2=CCCN(C)C [Compound 24, Ethyl (E,Z)-2-[4-(3-dimethylaminopropylidene)-10-oxo-9,10-dihydro-4H-1-thiabenzo[f]azulen-2-yl]-2-methylpropionate hydrochloride] | ~1 mg/kg | 174 mg/kg | – | 13.2 nM | – | –
CNCC/C=C1\c2cc(C(C)(C)C(=O)O)ccc2OCc2ccsc21 [Compound 25, (E)-{2-Methyl-2-[4-(3-methylaminopropylidene)-4,10-dihydro-9-oxa-3-thiabenzo [f]azulen-6-yl]}propionic acid] | – | – | – | – | 5.70 mg/kg | >200 mg/kg
O=C(O)Cc1ccc2c(c1)/C(=C\CCN1CCCC1)c1sccc1CO2 [Compound 26, (E)-{4-[3-(Pyrrolidin-1-yl)propylidene]-4,10-dihydro-9-oxa-3-thiabenzo[f]azulen-6-yl}acetic acid] | 0.156 mg/kg | 80.9 mg/kg | – | 19.2 nM | – | –
O=C(O)Cc1ccc2c(c1)/C(=C/CCN1CCCC1)c1sccc1CO2 [Compound 27, (Z)-{4-[3-(Pyrrolidin-1-yl)propylidene]-4,10-dihydro-9-oxa-3-thiabenzo[f]azulen-6-yl}acetic acid] | 0.226 mg/kg | > 200 mg/kg | – | 70.2 nM | – | –
CN(C)CC/C=C1/c2cc(CC(=O)O)ccc2OCc2sccc21 [Compound 28, (Z)-[4-(3-Dimethylaminopropylidene)-4,10-dihydro-9-oxa-1-thiabenzo[f]azulen-6-yl]acetic acid] | < 0.1 mg/kg | 5.85 mg/kg | – | 43.4 nM | – | –
CN(C)CC/C=C1\c2cc(CC(=O)O)ccc2OCc2sccc21 [Compound 29, (E)-[4-(3-Dimethylaminopropylidene)-4,10-dihydro-9-oxa-1-thiabenzo[f]azulen-6-yl]acetic acid] | < 0.1 mg/kg | 23.7 mg/kg | – | 70.7 nM | – | –
CCN(C)CC/C=C1\c2cc(CC(=O)O)ccc2OCc2ccsc21 [Compound 30] | ~0.3 mg/kg | – | 95 mg/kg | 57.6 nM | – | –
O=C(O)Cc1ccc2c(c1)/C(=C/CCN1CCOCC1)c1sccc1CO2 [Compound 33, (Z)-{4-[3-(Morpholin-4-yl)propylidene]-4,10-dihydro-9-oxa-3-thiabenzo[f]azulen-6-yl}acetic acid] | ~0.3 mg/kg | 21.1 mg/kg | – | – | – | –
O=C(O)Cc1ccc2c(c1)/C(=C\CCN1CCCCC1)c1sccc1CO2 [Compound 34, (E)-{4-[3-(Piperidin-1-yl)propylidene]-4,10-dihydro-9-oxa-3-thiabenzo[f]azulen-6-yl}acetic Acid] | ~0.3 mg/kg | 34.8 mg/kg | – | 31.4 nM | – | –
O=C(O)Cc1ccc2c(c1)/C(=C/CCN1CCCCC1)c1sccc1CO2 [Compound 35, (Z)-{4-[3-(Piperidin-1-yl)propylidene]-4,10-dihydro-9-oxa-3-thiabenzo[f]azulen-6-yl}acetic acid] | ~0.1 mg/kg | 65.7 mg/kg | – | – | – | –
O=C(O)Cc1ccc2c(c1)/C(=C/CCNCc1ccccc1)c1sccc1CO2 [Compound 43, (Z)-[4-(3-Benzylaminopropylidene)-4,10-dihydro-9-oxa-3-thiabenzo[f]azulen-6-yl]acetic acid] | 1.31 mg/kg | > 80 mg/kg | – | – | – | –
CN1CCN(CC/C=C2\c3cc(CC(=O)O)ccc3OCc3ccsc32)CC1 [Compound 50, (E)-{4-[3-(4-Methylpiperadin-1-yl)propylidene]-4,10-dihydro-9-oxa-3-thiabenzo[f]azulen-6-yl}acetic acid] | 1.34 mg/kg | > 80 mg/kg | – | 89.1 nM | – | –
CN(C)CC/C=C1/c2cc(CCC(=O)O)ccc2OCc2sccc21.Cl [Compound 57, (Z)-3-[4-(3-Dimethylaminopropylidene)-4,10-dihydro-9-oxa-1-thiabenzo[f]azulen-6-yl]propionic acid hydrochloride] | ~0.1 mg/kg | – | > 80 mg/kg | 56.3 nM | – | –
O=C(O)CCc1ccc2c(c1)/C(=C\CCN1CCCC1)c1ccsc1CO2 [Compound 58, (E)-3-{4-[3-(Pyrrolidin-1-yl)propylidene]-4,10-dihydro-9-oxa-1-thiabenzo[f]azulen-6-yl}propionic acid] | ~0.1 mg/kg | 110 mg/kg | – | 23 nM | – | –
CC(C)(C(=O)O)c1cc2c(s1)CCc1ccccc1/C2=C\CCN1CCCC1 [Compound 69, (E,Z)-2-Methyl-2-{4-[3-(pyrrolidin-1-yl)propylidene]-9,10-dihydro-4H-1-thiabenzo[f]azulen-2-yl}propionic acid] | – | – | – | 53.8 nM | – | –
CN1CCC(=C2c3ccccc3CC(=O)c3sccc32)CC1 [Ketotifen, reference compound] | 0.54 mg/kg | – | – | – | – | –
